Data as given in paper PMC6385889 (Chemical biology & drug design, 2011).
Values joined by “and” are separate entries in the source; they are usually repeats but may differ in a detail not shown here. Equal entries are not always repeated. Where two headings read alike, the source gives them in different places.

How the values were obtained:
[1] = tested on: HIV-1 containing N155H integrase; format: cell-based; settings: cells infected with mutant vector
[2] = tested on: HIV-1 containing G140S/Q148H integrase; format: cell-based; settings: cells infected with mutant vector
[3] = tested on: HIV-1 containing Y143R integrase; format: cell-based; settings: cells infected with mutant vector
HOS cells = experiment: Cellular cytotoxicity; format: cell-based, human; settings: HOS cells
[4] = tested on: HIV-1 containing wild-type (WT) integrase; experiment: Antiviral assay, cells infected with HIV-1 vector containing WT integrase; format: cell-based
Cellular cytotoxicity = format: cell-based, human; settings: human, HOS osteosarcoma cells
HIV-1 integrase Y143R = experiment: In vitro ST assay, Y143R mutant IN; format: biochemical; settings: mutant enzyme vs WT enzyme; pre-cleaved DNA, Mg2+
[5] = tested on: HIV-1 integrase G140S/Q148H; settings: mutant enzyme vs WT enzyme; pre-cleaved DNA, Mg2+
HIV-1 integrase N155H = experiment: In vitro ST assay, N155H mutant IN; format: biochemical
[6] = Human immunodeficiency virus 1, read-out: EC50 (WT)

CC(C)n1c(C(=O)N(C)C)c2c(c(O)c1=O)C(=O)N(Cc1ccc(F)c(Cl)c1)CC2 [compound 2, MK-0536, reference compound]
Fold-loss of antiviral potency relative to virus containing WT enzyme, N155H [1]: 1x fold | Fold-loss of antiviral potency relative to virus containing WT enzyme, G140S/Q148H [2]: 5x fold | Fold-loss of antiviral potency relative to virus containing WT enzyme, G140S/Q148H ([2]; listed as MK-0536): 5 fold | Fold-loss of antiviral potency relative to virus containing WT enzyme, Y143R [3]: 0.4x fold | CC50 (HOS cells; 48 hrs): > 100 µM | EC50 ([4]; read-out: EC50 (WT), HIV-1 vector with WT integrase): 0.017 ± 0.004 µM

Cc1nnc(C(=O)NC(C)(C)c2nc(C(=O)NCc3ccc(F)cc3)c(O)c(=O)n2C)o1 [compound 1, raltegravir, reference compound]
CC50 at 48 h (Cellular cytotoxicity): > 100 µM | EC50 [4, 6]: 0.004 ± 0.002 µM

COC(=O)CCc1c2c(c(O)c(=O)n1C(C)C)C(=O)N(Cc1ccc(F)c(Cl)c1)C2=O [5e, Methyl 3-(2-(3-chloro-4-fluorobenzyl)-7-hydroxy-5-isopropyl-1,3,6-trioxo-2,3,5,6-tetrahydro-1H-pyrrolo[3,4-c]pyridin-4-yl)propanoate]
Fold-loss of potency relative to WT, Y143R (ST, in vitro) (HIV-1 integrase Y143R): 2 fold and 2x fold | Fold-loss of antiviral potency relative to virus containing WT enzyme, N155H [1]: 3 fold and 3x fold | Fold-loss of antiviral potency relative to virus containing WT enzyme, G140S/Q148H [2]: 2 fold and 2x fold | Fold-loss of antiviral potency relative to virus containing WT enzyme, Y143R [3]: 2 fold and 2x fold | Cytotoxicity fold lower than catechol-containing analogue 3 (HOS cells; ratio of CC50 values): approximately 70 fold | CC50 at 48 h (Cellular cytotoxicity): 392 ± 66 µM | Fold-loss of potency relative to WT, G140S/Q148H (ST, in vitro) [5]: 12 fold and 12x fold | EC50 [4, 6]: 9.2 ± 1.9 µM | Fold less sensitive than raltegravir to N155H mutation (in vitro) (HIV-1 integrase N155H; comparison of fold-losses, enzyme assay): approximately 2 fold | Fold-loss of potency relative to WT, N155H (ST, in vitro) (HIV-1 integrase N155H; mutant enzyme vs WT enzyme, pre-cleaved DNA, Mg2+): 4 fold and 4x fold
